The record followed here is patent US20090156577A1, “7-AMINO ALKYLIDENYL-HETEROCYCLIC QUINOLONES AND NAPHTHYRIDONES” (priority 2004, published 2009).

The structures appear in SMILES notation. Values after ≈ are worked out from the molar mass of the structure shown. Where two headings read alike, the source gives them in different places.

The test system of this assay is pathogenic bacteria. The assay is described as follows: MIC by microdilution broth method (NCCLS M7-A4), in vitro antibacterial activity. The assay is classed as cell-based. An outline of the steps: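 Broth microdilution per NCCLS M7-A4: two-fold serial dilutions in cation-adjusted Mueller-Hinton broth, inoculum about 5×10^4 CFU/well. Trays incubated 16–20 h at 35 °C. MIC read by comparing growth against no-compound growth controls.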

On to `COc1c(N2CCOC/C(=C(/F)CN)C2)c(F)cc2c(=O)c(C(=O)O)cn(C3CC3)c12` [Compound 508, (E)-7-[6-(2-Amino-1-fluoro-ethylidene)-[1,4]oxazepan-4-yl]-1-cyclopropyl-6-fluoro-8-methoxy-4-oxo-1,4-dihydro-quinoline-3-carboxylic acid], for which the MIC (as a rule, the lowest concentration found to suppress growth) was 0.12 µg/mL (≈ 0.276 µM) (Staphylococcus aureus, Organism A: Staphylococcus aureus OC4172, read-out: MIC); 1 µg/mL (≈ 2.3 µM) (Streptococcus pneumoniae, ATCC49619, Organism E: Streptococcus pneumoniae ATCC 49619, read-out: MIC); no more than 4 µg/mL (Streptococcus pneumoniae, Organism B: fluoroquinolone-resistant clinical isolate of Streptococcus pneumoniae (QRDR amino acid substitutions)); greater than 16 µg/mL (Streptococcus pneumoniae, Organism C: fluoroquinolone-resistant clinical isolate of Streptococcus pneumoniae (QRDR amino acid substitutions)); 8 µg/mL (≈ 18.4 µM) (Streptococcus pneumoniae, Organism D: fluoroquinolone-resistant clinical isolate of Streptococcus pneumoniae (QRDR amino acid substitutions)).
